{
  "source": "patent US9114159B2",
  "about": "“Transcription factors in neuronal dendrites-dendritic protein synthesis and cell death” (The Trustees of the University of Pennsylvania, priority 2005, dated 2015)",
  "key": {"[1]": {"system": "primary rat hippocampal neurons", "conditions": "for effect on Elk-1 induced cell death: Elk-1 GFP mRNA photoporated into dendrites", "protocol": "Cultured primary rat hippocampal neurons were bathed in 10-15 μg capped mRNA in 1 ml extracellular saline at 37° C. In some cases, neurons were pre-incubated with the translation inhibitor, anisomycin (5 μM), the mitochondrial PTP inhibitor, bongkrekic (BKA; 25 μM), or the transcriptional inhibitor, actinomycin D (1 μg/ml).\nSamples were imaged and photoporated using a Prairie Ultima multiphoton scan head attached to an Olympus BX61 fixed-stage upright microscope equipped with a 40× water immersion lens (LUMPlanFI/IR, N.A. 0.8). 8 to 16 points were selected over a 2 μm×2 μm area for photoporation. A Ti-sapphire laser (Mai-Tai®, Spectral-Physics, Mountain View, Calif.) was used to make transient poration sites for 5 milliseconds at 30 mW (at back aperture of lens) energy. After photoporation, samples were transferred to an Olympus IX81 inverted microscope for simultaneous GFP fluorescence and DIC imaging. All images were processed with Metamorph (Universal Imaging Corporation) image processing software. For cell death assays, a LIVE/DEAD cell viability/cytotoxicity kit (Molecular Probes) was used according to the manufacturer's instructions.\nA cell viability/cytotoxicity assay (Invitrogen Molecular Probes, Carlsbad, Calif.) was used to confirm the morphological observations of cell death following Elk-1 GFP mRNA photoporation. […] Obvious morphological signs of cell death may take hours to become apparent, whereas the use of a nuclear dye allows rapid identification of neurons that are in the process of dying."}, "[2]": {"system": "primary rat hippocampal neurons", "experiment": "Elk-1 immunocytochemistry after mGluR stimulation", "format": "cell-based", "conditions": "30-minute application, 50 μM, n=7", "description": "Immunocytochemistry/immunohistochemistry: Three polyclonal antibodies raised against Elk-1 (Santa Cruz Biotechnology, Santa Cruz, Calif.; Cell Signaling Technology, Beverly, Mass.) were used to detect Elk-1 protein in primary rat hippocampal cultures and in adult rat brain sections. A monoclonal antibody raised against a synthetic phospho-peptide of Elk-1 was used to detect Elk-1 protein phosphorylated at S383 (Cell Signaling Technology). […] For stimulation experiments, cultured neurons were placed in warm Hals buffer (pH=7.4) and treated with the Group I mGluR agonist, dihydrophenylglycine (DHPG; Tocris Cookson Inc., Ellisville, Mo.) at a final concentration of 50 μM for 30 minutes at 37° C. prior to fixation and immunocytochemistry."}, "[3]": {"system": "primary rat corticol neurons", "experiment": "Elk-1 association with mitochondria, Western blotting of mitochondrial fractions", "format": "cell-based", "conditions": "Western blotting after drug application", "protocol": "Mitochondrial fractionation for western blots: A mitochondrial isolation kit (Pierce) was used according to the manufacturer's instructions to isolate mitochondria from primary neuronal cultures. Once isolated, mitochondria were lysed in buffer containing: 150 mM NaCl, 1% NP-40, 0.5% Deoxycholic acid, 0.1% SDS, 50 mM Tris, 10 ug/mL Aprotinin, 5 ug/mL Leupeptin, 1 mM sodium orthovanidate, 1 mM PMSF and 100 ug/mL TPCK. Lysate was then used for western blotting with the following antibodies: Elk-1 (Cell Signaling Technology), VDAC 1 (Santa Cruz Biotechnology), NeuN (Abcam).\nTo examine whether specific cellular insults could increase or decrease the association between Elk-1 and mitochondria, primary rat corticol neurons were exposed to a variety of compounds known to induce cell death in neurons, and mitochondrial fractions were then isolated and used for Western blotting."}, "[4]": {"system": "primary rat hippocampal neurons", "experiment": "DAPI and Hoechst nuclear stains for pycnotic nuclei", "format": "cell-based", "conditions": "cells treated for 3 hours with 30 μM", "procedure": "FIG. 5A is a graph depicting cell counts after Elk-1 over-expression. Neurons electroporated with Elk-1 in a pcDNA vector were stained with a MAP2 antibody at 48, 72, 96 and 168 hours after plating. Two 5× images of MAP2 immunoreactive neurons were taken for each experiment, and MAP2 positive neurons were counted manually. Shown are the percent decreases in MAP2 positive neurons compared to control. (Line=best fit) FIG. 5B are images of MAP2 immunoreactivity from neurons electroporated with a control pcDNA vector (right image) or with Elk-1 in pcDNA (left image). FIG. […] Scale bar=20 μm.\nIn order to assess whether neurons were dying via apoptosis or necrosis following Elk-1 over-expression, DAPI and Hoechst nuclear stains were used to look for evidence of pycnotic nuclei, characteristic of an apoptotic phenotype."}},
  "note": "“Also recorded” adds a separate entry of the source. Where two headings read alike, the source gives them in different places. *1 amine or outer side, *2 acyl side, *3 side chain or, on linkers, in order; H or OH if unused. Where a SMILES comes first, the peptide text is derived from it. Bridges are numbered along the chain shown (N, C = ends). Roman numbers before positions name the chains, in order. [ ]: non-standard residue; d: D form. Actinocin(9to1) = Cc1c2oc3c(C)ccc(C(=O)[*:1])c3nc-2c(C(=O)[*:2])c(N)c1=O; NMeV = CN[C@H](C(=O)O)C(C)C; Sar = CNCC(=O)O",
  "data": [
    {"smiles": "CO[C@H](C/C=C\\C=C\\CC/C=C/C[C@H](C)/C=C/C(=C\\C(=O)O)CC(=O)O)/C(C)=C\\C=C(/C)C(=O)O", "note": "[BKA, bongkrekic acid]", "values": [
      {"measurement": "effect on Elk-1 induced cell death", "setting": "[1]; pre-incubation with mitochondrial PTP inhibitor 25 μM, n=10", "result": "blocked; also recorded: cells did not die"}
    ]},
    {"smiles": "N[C@H](C(=O)O)c1cc(O)cc(O)c1", "note": "[DHPG, dihydrophenylglycine]", "values": [
      {"measurement": "Elk-1 immunoreactivity in both cell somas and dendrites", "setting": "[2]", "result": "substantial increase"}
    ]},
    {"smiles": "Cc1c2oc3c(C)ccc(C(=O)N[C@@H]4C(=O)N[C@H](C(C)C)C(=O)N5CCC[C@H]5C(=O)N(C)CC(=O)N(C)[C@@H](C(C)C)C(=O)O[C@@H]4C)c3nc-2c(C(=O)N[C@@H]2C(=O)N[C@H](C(C)C)C(=O)N3CCC[C@H]3C(=O)N(C)CC(=O)N(C)[C@@H](C(C)C)C(=O)O[C@@H]2C)c(N)c1=O", "note": "[actinomycin D] (I: T[dV]P[Sar][NMeV] / II: T[dV]P[Sar][NMeV]; ester I:1-I:C, II:1-II:C; linker I:N-II:N via Actinocin(9to1))", "values": [
      {"measurement": "effect on Elk-1 induced cell death", "setting": "[1]; pre-incubation with transcriptional inhibitor 1 μg/ml, n=7", "result": "inhibited"}
    ]},
    {"smiles": "COc1ccc(C[C@H]2NC[C@H](O)[C@H]2OC(C)=O)cc1", "note": "[anisomycin]", "values": [
      {"measurement": "effect on Elk-1-induced cell death", "setting": "[1]; pre-incubation with translational inhibitor 5 μM, Elk-1 GFP mRNA photoporated", "result": "blocked; also recorded: absence of cell death"}
    ]},
    {"smiles": "CC[C@@]1(O)C(=O)OCc2c1cc1n(c2=O)Cc2cc3ccccc3nc2-1", "note": "[camptothecin]", "values": [
      {"measurement": "Elk-1 association with mitochondria", "setting": "[3]", "result": "increased its association with mitochondria"},
      {"measurement": "pycnotic nuclei", "setting": "[4]", "result": "presence of pycnotic nuclei"}
    ]}
  ]
}
